Source: a melting point compilation (Tetko et al.)

Row | Compound | melting point
1 | CCOC1OC(C(N)=O)=CC(C)C1Br (configuration not stated) | 131 °C
2 | CC(C)(O)C#CC(C)(C)O | 95 °C
3 | O=C(O)CCC(=O)OOC(=O)CCC(=O)O | 127 °C
4 | Cc1c2c(c(C)c3c1C(=O)C3)C(=O)C2 | 237 to 238 °C
5 | O=C1c2ccccc2C(=O)c2cc3ccccc3cc21 | 291 °C
6 | c1csc(-c2cc[nH]n2)c1 | 97 to 99 °C
7 | CS(=O)(=O)OCCCNCCCOS(C)(=O)=O | 116 °C
8 | CCCCC(CC)COC(=O)CCCCCCCCC(=O)OCC(CC)CCCC (configuration not stated) | -48 °C
9 | CC(=O)OC1=C(C)C2(OC(C)=O)CCC1C1C(=O)NC(=O)C12 (configuration not stated) | 161 to 162 °C
10 | Cc1ccccc1N1CCN(CCc2nnc3n2CCCC3)CC1 | 158 °C
11 | CCOC(=O)C(SP(=S)(OC)OC)c1ccccc1 (configuration not stated) | 17.5 °C
12 | CCCC(=O)OC1(C(=O)CCl)C(C)CC2C3CCC4=CC(=O)C=CC4(C)C3(F)C(=O)CC21C (configuration not stated) | 95 °C
13 | COC(=O)[C@@H](CC(=O)O)C1CCCCC1 | 47.9 °C
14 | CCOC(=O)C(C)=P(c1ccccc1)(c1ccccc1)c1ccccc1 | 157 to 159 °C
15 | NC(c1ccccc1)(c1ccccc1)c1ccccc1 | 102 °C
16 | COC1(OC)CC=CCC(OC)(OC)CC=CC1 | 201 to 202 °C
17 | COC(=O)c1nc(Cl)c(Cl)nc1N | 232 °C
18 | O=C(O)c1cnc2n(c1=O)CCS2 | 237 to 238 °C
19 | ON=C1CCCCCN1 | 168 to 170 °C
20 | CC(C)(C)NC(=O)C1CCC2CC34CCC(CC=C3C=C(O)C=O)C4CCC21C (configuration not stated) | 257 °C
21 | COc1cc(CC(C)N)c(OC)cc1C (configuration not stated) | 60.8 °C
22 | Clc1cc2oc3c(Cl)c(Cl)c(Cl)cc3c2cc1Cl | 196 °C
23 | CC(C)CCCC(C)C1CCC2C3CCC4=CC(=O)CCC4(C)C3CCC12C (configuration not stated) | 79 to 82 °C
24 | OCC1NC(CO)C(O)C1O (configuration not stated) | 102 °C
25 | O=C1OC(=O)C23Cc4ccccc4CC12Cc1ccccc1C3 (configuration not stated) | 267 to 270 °C
26 | COc1cccc(C(=O)N(NC(=O)c2ccccc2)C(C)(C)C)c1 | 188 °C

Row | Compound | melting point
27 | O=C(O)CN=C(S)C(=S)NCC(=O)O | 220 °C
28 | COc1ccc(C(=O)C2=NOC3C(=O)N(c4ccc(C(=O)O)cc4)C(=O)C23)cc1 (configuration not stated) | 199 °C
29 | Oc1ncc(C(F)(F)F)cc1Cl | 157 to 159 °C
30 | C=CCC(/C=C1\C(=O)C2(C)CCC1C2(C)C)(/C=C1\C(=O)C2(C)CCC1C2(C)C)C(=O)OCC (configuration not stated) | 148 °C
31 | O=S(=O)(Cl)c1sc(-c2ccccc2)nc1-c1ccccc1 | 173 to 174 °C
32 | C=CCNC(=S)NNC(=O)C(=O)c1c[nH]c2ccccc12 | 229 °C
33 | CC12CCC3C4CCC(=O)C=C4CCC3C1CCC2O (configuration not stated) | 122 °C
34 | CC1C2Cc3ccc(O)cc3C1(C)CCN2CCc1ccccc1 (configuration not stated) | 181 °C
35 | CCCCC(=O)OCC(=O)C1C(C)CC2C3CC(F)C4=CC(=O)C=CC4(C)C3(F)C(O)CC21C (configuration not stated) | 195 °C
36 | NC(=S)Nc1cc(C(F)(F)F)cc(C(F)(F)F)c1 | 166 to 168 °C
37 | CCN(CC)c1c([N+](=O)[O-])cc(C(F)(F)F)c(N)c1[N+](=O)[O-] | 98.5 °C
38 | c1ccc2c(c1)cc1ccc3c4ccccc4cc4ccc2c1c43 | 317 °C
39 | CC(=O)C1CCC2(C)C(CC(=O)C3C4CCC(=O)C4(C)CCC32)C1 (configuration not stated) | 237 °C
40 | C=C1CC23CC1(O)CCC2C12C=CC(O)C(C)(C(=O)O1)C2C3C(=O)O (configuration not stated) | 227 °C
41 | O=C(O)CCN1CCNCC1 | 71 to 86 °C
42 | O=C1OC(OC2OC(=O)C(Cl)=C2Cl)C(Cl)=C1Cl (configuration not stated) | 142 °C
43 | CC(C)(C)OC(=O)N1CCC(C(N)=S)CC1 | 130 to 131 °C
44 | COc1ccc(CNc2ccc([N+](=O)[O-])c3nonc23)cc1 | 176 to 180 °C
45 | FC(F)(F)C(F)(C(F)(F)F)C(F)(C(F)(F)F)C(F)(F)F | -16.7 °C
46 | O[C@H]1CCC[C@@H]1O | 55 °C
47 | C[Si](C)(Cl)CC[Si](C)(C)Cl | 37 °C
48 | CCOC(=O)c1[nH]cnc1C | 204 to 206 °C
49 | O=C(O)c1ccc(N2CCOCC2)s1 | 135 to 137 °C
50 | FC(Cl)C(F)(F)F (configuration not stated) | -199 °C
51 | C[C@@]12CC[C@@H]3[C@H](CC[C@]4(C)C(=O)CC[C@]34C)[C@@]1(C)CCC(=O)C2 | 184 to 186 °C
52 | C=CCC1=C(OC(C)=O)C2=CC=C3C(C)=C(C)C(=O)CC3(C)C2=C(O)C1=O (configuration not stated) | 93 °C

Row | Compound | melting point
53 | CCCCCCCSCCCCCCC | 70 °C
54 | CN1CCN(c2ccc(N)cc2)CC1 | 92 °C
55 | Nc1cc(Cl)c2nonc2c1[N+](=O)[O-] | 276 to 277 °C
56 | O=C(O)C=CC(=O)Nc1ccccc1 | 177 °C
57 | CC(=O)c1cnccn1 | 77 °C
58 | CC(C)(C)C(CO)CO | 55 °C
59 | CC(=O)c1c(C)nc2cc3nc(C)c(C(C)=O)c(C)c3cc2c1C | 246 to 248 °C
60 | CNC(C)Cc1ccc(O)cc1 (configuration not stated) | 161 °C
61 | N[C@@H](CCl)C(=O)O | 156 to 157 °C
62 | FC(F)(F)C(F)(F)C(F)(F)C(F)(F)C(F)(F)C(F)(F)C(F)(F)C(F)(F)C(F)(F)C(F)(F)C(F)(F)C(F)(F)F | 75 to 77 °C
63 | COC1(C)CC(c2ccccc2)c2c(c3ccccc3oc2=O)O1 (configuration not stated) | 166 °C
64 | Nc1ccc(-c2ccc(N)cc2C(F)(F)F)c(C(F)(F)F)c1 | 183 °C
65 | CC1=CC(=O)C=CC1=O | 69 °C
66 | CC[N+](CC)(CC)S(=O)(=O)[N-]C(=O)OC | 77 °C
67 | CCCCC(C#N)(Cn1ccnc1)c1ccccc1 (configuration not stated) | 161 °C
68 | O=C(O)C=CC(=O)C=CC(=O)O | 300 °C
69 | CCOC(=O)NC(=O)CCl | 127 to 131 °C
70 | N=C(N)NCC(=O)O | 300 °C
71 | CCCCCCCCCCCCCCCCN | 46.8 °C
72 | O=C(F)c1ccccc1 | -28 °C
73 | O=C(CBr)Nc1ccccc1Cl | 89 to 91 °C
74 | CC12CCC(=O)C(Cl)=C1CCC1C2CCC2(C)C(O)CCC12 (configuration not stated) | 189 °C
75 | CCNC(=O)C=C(C)C=CC=C(C)C=Cc1c(C)cc(OC)c(C)c1C | 180 °C
76 | O=C(O)C1CCN(c2nccc(C(F)(F)F)n2)CC1 | 140 to 142 °C
77 | c1cnc(SSc2ncccn2)nc1 | 139 to 141 °C

The remaining lines, values ahead:

Row | melting point | Compound
78 | 190 to 192 °C | O=[N+]([O-])c1cccc(-c2nnc3n2NC(/C=C/c2ccccc2)S3)c1 (configuration not stated)
79 | 92 to 93 °C | Cc1ccc(C#N)c(N)c1
80 | 140 to 145 °C | NNc1cc(Cl)c(C(F)(F)F)cc1[N+](=O)[O-]
81 | 107 °C | O=[N+]([O-])c1ccc(Cl)nc1
82 | 39 to 41 °C | O=S(=O)(Cl)Cc1cccc(F)c1
83 | 81 to 82 °C | O=C=Nc1cccc2nsnc12
84 | 250 °C | Cc1ccc2cc(C(=O)O)ccc2n1
85 | 34 °C | O=[N+]([O-])c1ccc(Br)cc1C(F)(F)F
86 | 169 to 173 °C | O=C(O)c1ccc(F)cc1Br
87 | 28 to 30 °C | O=Cc1ccc(F)c(Cl)c1
88 | 62 °C | Fc1cccc2cc[nH]c12
89 | 56 to 60 °C | Cc1cc(CO)ccc1[N+](=O)[O-]
90 | 119 to 121 °C | Cc1ccc2nc(C(F)(F)F)cc(Cl)c2c1[N+](=O)[O-]
91 | 125 °C | O=S(=O)(O)c1ccc2cc(O)ccc2c1
92 | 146 to 150 °C | Cn1cnc([N+](=O)[O-])c1Cl
93 | 90 °C | CC(C)(C)OC(=O)NC(Cc1ccc2ccccc2c1)C(=O)O (configuration not stated)
94 | 247 to 257 °C | O=C1CCCc2c1nc(-c1ccccc1)n2O
95 | 95.8 °C | O=[N+]([O-])c1cccc2cccc(Cl)c12
96 | 78 °C | O=C1c2ccccc2C(=O)N1CCCO
97 | 196 to 197 °C | O=C(O)c1cnc2ccccn12
98 | 158 °C | N#Cc1ccc(O)c(Br)c1
99 | 280 °C | NC(=O)c1cccc(C(=O)O)c1
100 | 59 °C | O=S(=O)(Cl)c1cccc(S(=O)(=O)Cl)c1
101 | 133 to 136 °C | CC1CN(c2ccccc2)NC1=O (configuration not stated)
102 | 170 °C | CC(C)NCC(O)c1ccc(O)c(O)c1 (configuration not stated)

Row | melting point | Compound
103 | 141 to 143 °C | Nc1cc(Cl)cnc1Br
104 | 68.5 °C | Cc1cc2ccccc2nc1C
105 | 87 to 90 °C | COC(=O)c1scc(C#N)c1-n1cccc1
106 | 93 to 94 °C | Cc1cc(C(=O)CCl)c(C)n1-c1ccccc1
107 | 217 °C | O=C1C=C(NCc2ccc(Cl)c(Cl)c2)C(=O)c2ccccc21
108 | 79 °C | COc1cc(O)ccc1Br
109 | 212 to 216 °C | CSc1nc(NS(=O)(=O)c2ccc(C)cc2)c(C#N)c(-c2ccccc2)c1Br
110 | 140 °C | CCOC(=O)/C(C#N)=C/c1ccc(-c2ccc(Cl)cc2)o1
111 | 223 to 224 °C | Cc1nn(-c2ccccc2)c2oc3ncccc3c(=O)c12
112 | 286 °C | CSc1nc2[nH]c(Cc3ccccc3)nc(=O)c2n1C
113 | 84.5 °C | NC(=O)c1ccc(F)c(C(F)(F)F)c1
114 | 108 to 109 °C | CN(C)CCOc1ccccc1C(=O)O
115 | 172 to 173 °C | Cc1cc(Cl)ccc1C(=O)O
116 | 65 °C | Cc1ccc(N=C=S)c([N+](=O)[O-])c1
117 | 173 to 176 °C | Cc1onc(-c2c(Cl)cccc2Cl)c1C(N)=S
118 | 206 to 207 °C | COc1ccc(NC(=S)NNC(=O)c2nn(-c3ccccc3)nc2C)cc1
119 | 44 to 46 °C | Cc1cc(CO)nn1-c1ccccn1
120 | 129 to 131 °C | CC(=O)c1ccc(S(C)(=O)=O)cc1
121 | 267 °C | Cc1ccc(-n2c(C=Cc3ccc([N+](=O)[O-])cc3)nc3cc([N+](=O)[O-])ccc32)cc1
122 | 77 °C | COC(=O)c1cc(I)ccc1O
123 | 88 to 90 °C | N#Cc1c(F)cccc1OCC(F)(F)F
124 | 97 °C | COc1ccc(-n2cncn2)cc1
125 | 289 °C | N#Cc1cc2c(=O)oc3ccccc3c2nc1N
126 | 150 °C | O=C(Cl)c1nc2ccccc2s1
127 | 164 to 169 °C | O=C(O)c1ccccc1S
